Common to all, as to assay type: cell-based
Experiment [1] concerns the target T1, SMARCA2 (Homo sapiens, UniProt P51531). Nature of the experiment: MSD SMARCA2 degradation in NCI-H1299 cell line (24 h). Also noted: HC: NCI-H1299 cells treated with DMSO; host or cells: NCI-H1299. Conditions: NCI-H1299 cells. Summed up: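 NCI-H1299 cells treated 24 h with a 3-fold, 9-point compound dilution series, then lysed in RIPA with protease inhibitor. SMARCA2 in lysate-coated MSD plates detected with rabbit anti-SMARCA2 (0.3 ug/ml) and SULFO-TAG secondary. Relative SMARCA2 level normalized between DMSO-treated H1299 cells and SMARCA2-negative A2780 cells; Dmax % binned A–D.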

Experiment [2] addresses T1, SMARCA2. Nature of the experiment: SMARCA2 Western blot MV4-11 degradation. The following applies: for DC50 / Dmax: 24 h; for DC50: read-out: SMARCA2 WB MV411 degradation 24 h: Average external-Abs DC50; for Dmax: MV4-11, MV4-11 cells, read-out: SMARCA2 WB MV411 degradation 24 h: Average Dmax %. An outline of the steps:
(§1)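 MV4-11 cells treated with compound for 24 h, lysed in RIPA with protease/phosphatase inhibitors, and SMARCA2 and SMARCA4 (BRG1) levels assessed by Western blot with β-actin loading control and LI-COR fluorescent read-out. Maximal degradation (Dmax %) after 24 h binned into letter codes.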
(In general: In western blotting, separated proteins are transferred to a membrane and probed.)

Experiment [3] deals with T1, SMARCA2. Nature of the experiment: MSD SMARCA2 degradation in A549 cell line. The following applies: for DC50 / Dmax: 24 h; for DC50: read-out: SMARCA2 MSD A549 degradation 24 h: Average external-Abs DC50; for Dmax: A549, A549 cells. Summed up:
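A549 cells treated 24 h with compound at final 0.152-1000 nM (3-fold series, DMSO control). Lysates analyzed by MSD immunoassay using anti-SMARCA2/BRM detection and SULFO-TAG secondary antibodies; maximal degradation (Dmax %) reported as letter bins.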

In experiment [4] the target is T2, SMARCA4 (Homo sapiens, UniProt P51532).
T2 construct: SMARCA2 and SMARCA4 protein degradation in MV4-11 cells; endogenous in cells; host or cells: MV4-11
T2 sequence (P51532 whole entry): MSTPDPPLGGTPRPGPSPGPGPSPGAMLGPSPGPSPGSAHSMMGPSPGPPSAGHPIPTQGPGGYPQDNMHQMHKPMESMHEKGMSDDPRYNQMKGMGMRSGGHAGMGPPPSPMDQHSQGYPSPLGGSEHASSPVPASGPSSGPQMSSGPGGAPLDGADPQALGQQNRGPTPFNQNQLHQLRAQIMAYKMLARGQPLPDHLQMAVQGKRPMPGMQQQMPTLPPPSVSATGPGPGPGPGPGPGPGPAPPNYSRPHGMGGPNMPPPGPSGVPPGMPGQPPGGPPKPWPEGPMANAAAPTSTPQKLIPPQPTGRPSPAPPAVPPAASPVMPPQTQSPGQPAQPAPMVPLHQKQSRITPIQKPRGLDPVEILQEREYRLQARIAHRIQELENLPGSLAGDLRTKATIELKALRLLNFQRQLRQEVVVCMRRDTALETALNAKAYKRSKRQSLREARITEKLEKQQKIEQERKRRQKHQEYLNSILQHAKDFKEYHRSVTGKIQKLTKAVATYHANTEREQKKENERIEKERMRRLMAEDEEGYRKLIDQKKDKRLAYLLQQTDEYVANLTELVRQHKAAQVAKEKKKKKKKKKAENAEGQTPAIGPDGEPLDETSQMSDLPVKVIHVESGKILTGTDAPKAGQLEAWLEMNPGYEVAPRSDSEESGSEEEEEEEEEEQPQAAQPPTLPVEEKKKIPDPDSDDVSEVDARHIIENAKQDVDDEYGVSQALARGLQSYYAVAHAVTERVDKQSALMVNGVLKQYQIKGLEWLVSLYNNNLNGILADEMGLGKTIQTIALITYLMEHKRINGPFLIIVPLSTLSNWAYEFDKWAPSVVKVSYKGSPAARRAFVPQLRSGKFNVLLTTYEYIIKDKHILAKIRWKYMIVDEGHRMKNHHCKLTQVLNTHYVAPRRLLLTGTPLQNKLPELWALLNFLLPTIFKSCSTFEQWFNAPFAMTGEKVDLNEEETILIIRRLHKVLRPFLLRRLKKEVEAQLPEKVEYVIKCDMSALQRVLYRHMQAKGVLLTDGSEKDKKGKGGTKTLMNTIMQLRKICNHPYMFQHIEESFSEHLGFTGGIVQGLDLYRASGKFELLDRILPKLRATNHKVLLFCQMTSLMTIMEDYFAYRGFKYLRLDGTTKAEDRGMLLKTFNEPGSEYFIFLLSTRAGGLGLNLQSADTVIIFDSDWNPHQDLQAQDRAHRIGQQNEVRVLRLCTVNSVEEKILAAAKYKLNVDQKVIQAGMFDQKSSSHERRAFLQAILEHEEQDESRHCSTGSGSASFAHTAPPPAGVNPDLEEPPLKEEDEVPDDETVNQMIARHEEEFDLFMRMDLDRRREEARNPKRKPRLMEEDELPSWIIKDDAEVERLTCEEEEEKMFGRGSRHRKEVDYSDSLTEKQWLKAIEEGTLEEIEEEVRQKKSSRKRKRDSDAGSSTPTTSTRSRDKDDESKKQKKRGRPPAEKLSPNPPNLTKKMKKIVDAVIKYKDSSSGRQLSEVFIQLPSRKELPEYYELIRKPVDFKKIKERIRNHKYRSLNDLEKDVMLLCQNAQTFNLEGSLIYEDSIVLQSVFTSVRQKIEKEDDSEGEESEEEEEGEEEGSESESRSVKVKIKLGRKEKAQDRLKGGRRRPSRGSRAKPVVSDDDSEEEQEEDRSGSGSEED
Nature of the experiment: SMARCA4 Western blot MV4-11 degradation. Conditions: for DC50 / Dmax: 24 h; for DC50: read-out: SMARCA4 WB MV411 degradation 24 h: Average external-Abs DC50; for Dmax: MV4-11, MV4-11 cells, read-out: SMARCA4 WB MV411 degradation 24 h: Average Dmax %. An outline of the steps:
as §1

Structures are written as SMILES. Where only a bound is given, the exact number is not on record here.

This is an account of results in patent US12624044B2, “SMARCA degraders and uses thereof” (Kymera Therapeutics, Inc., priority 2019, dated 2026).

For orientation: DC50 means the concentration giving 50% degradation. As usually defined, the Dmax is the largest share of the target that was removed.

T1 sequence (P51531 whole entry): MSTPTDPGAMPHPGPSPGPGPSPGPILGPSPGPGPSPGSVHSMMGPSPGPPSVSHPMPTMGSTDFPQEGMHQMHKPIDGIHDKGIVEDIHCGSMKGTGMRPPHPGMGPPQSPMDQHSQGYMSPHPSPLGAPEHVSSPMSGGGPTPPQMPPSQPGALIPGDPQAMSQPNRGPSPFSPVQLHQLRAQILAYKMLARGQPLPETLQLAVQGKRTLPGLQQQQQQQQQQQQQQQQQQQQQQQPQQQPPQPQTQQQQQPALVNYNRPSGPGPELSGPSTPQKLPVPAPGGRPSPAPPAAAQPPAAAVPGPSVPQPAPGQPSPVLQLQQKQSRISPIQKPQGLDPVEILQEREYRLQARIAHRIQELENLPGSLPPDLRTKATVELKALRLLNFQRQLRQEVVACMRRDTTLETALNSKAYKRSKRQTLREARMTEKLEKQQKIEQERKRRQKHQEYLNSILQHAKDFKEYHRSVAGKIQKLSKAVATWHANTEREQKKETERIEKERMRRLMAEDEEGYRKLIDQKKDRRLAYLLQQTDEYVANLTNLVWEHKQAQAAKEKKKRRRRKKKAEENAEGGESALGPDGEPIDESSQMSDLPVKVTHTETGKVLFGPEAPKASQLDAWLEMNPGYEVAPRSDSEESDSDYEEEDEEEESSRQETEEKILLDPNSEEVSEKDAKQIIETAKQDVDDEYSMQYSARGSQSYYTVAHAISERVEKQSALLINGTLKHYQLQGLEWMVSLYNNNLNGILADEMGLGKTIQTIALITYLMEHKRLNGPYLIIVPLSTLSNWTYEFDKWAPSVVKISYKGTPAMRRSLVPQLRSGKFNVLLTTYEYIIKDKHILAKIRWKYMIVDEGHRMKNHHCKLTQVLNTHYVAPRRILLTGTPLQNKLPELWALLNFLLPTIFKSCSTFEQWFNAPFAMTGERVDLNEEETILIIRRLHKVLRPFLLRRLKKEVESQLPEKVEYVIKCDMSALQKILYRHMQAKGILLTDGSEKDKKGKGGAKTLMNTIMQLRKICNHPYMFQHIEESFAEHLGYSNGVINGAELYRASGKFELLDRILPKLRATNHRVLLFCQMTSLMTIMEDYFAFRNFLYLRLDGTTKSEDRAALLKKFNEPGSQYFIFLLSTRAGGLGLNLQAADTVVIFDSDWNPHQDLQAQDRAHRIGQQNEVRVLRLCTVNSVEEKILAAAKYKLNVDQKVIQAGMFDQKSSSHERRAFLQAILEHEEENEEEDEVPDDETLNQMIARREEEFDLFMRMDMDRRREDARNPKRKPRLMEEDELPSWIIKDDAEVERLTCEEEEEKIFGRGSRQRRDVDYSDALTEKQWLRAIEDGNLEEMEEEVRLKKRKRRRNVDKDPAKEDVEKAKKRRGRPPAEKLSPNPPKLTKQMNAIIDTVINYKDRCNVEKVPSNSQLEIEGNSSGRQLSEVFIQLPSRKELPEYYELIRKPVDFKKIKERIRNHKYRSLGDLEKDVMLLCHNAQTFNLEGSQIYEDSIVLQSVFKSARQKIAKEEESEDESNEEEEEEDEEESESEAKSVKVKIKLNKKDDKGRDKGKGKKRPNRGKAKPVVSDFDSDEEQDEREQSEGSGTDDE

Take `Cc1ncsc1-c1ccc(CNC(=O)[C@@H]2C[C@@H](O)CN2C(=O)[C@@H](NC(=O)[C@H]2CC3(C2)C[C@H](N2CCC(n4cc(-c5cc(-c6ccccc6O)nnc5N)cn4)CC2)C3)C(C)(C)C)cc1` (some centres unmarked) [I-390]: in experiment [1], the “SMARCA2 MSD H1299 degradation 24 h: Dmax %” value is “C (C (50-70 degradation))”. In addition, the DC50 in experiment [1] (read-out: SMARCA2 MSD H1299 degradation 24 h: External Abs-DC50) was in the range of 0.501 to 1 µM. In experiment [2] (MV4-11 cells), the “SMARCA2 WB MV411 degradation 24 h: Average Dmax %” value is recorded as “B (B (>70-90% degradation))” and the DC50 is less than 0.1 µM. Moreover, in experiment [3] (A549 cells), the “SMARCA2 MSD A549 degradation 24 h: Average Dmax %” value is “B (B (>70-90% degradation))” and the DC50 lay in the range of 0.1 to 0.5 µM. In addition, in experiment [4] (MV4-11 cells), the “SMARCA4 WB MV411 degradation 24 h: Average Dmax %” value is “D (D (<50% degradation))” and the DC50 was less than 0.1 µM.
For `Cc1ncsc1-c1ccc(CNC(=O)[C@@H]2C[C@@H](O)CN2C(=O)[C@@H](NC(=O)[C@H]2CC[C@H](CN(C)Cc3cnc(N4C5CCC4CN(c4cc(-c6ccccc6O)nnc4N)C5)nc3)CC2)C(C)(C)C)cc1` [I-486], the Dmax in experiment [2] is more than 90%; in experiment [3] it was more than 90%; in experiment [4], 50 to 70%. The DC50 in experiment [2] (MV4-11 cells) was less than 0.1 µM; in experiment [3] (A549 cells), 0.1 to 0.5 µM; in experiment [4] (MV4-11 cells), 0.1 to 0.5 µM.
On to `Cc1ncsc1-c1ccc(CNC(=O)[C@@H]2C[C@@H](O)CN2C(=O)[C@@H](NC(=O)C2CCC(c3cnc(N4C5CCC4CN(c4cc(-c6ccccc6O)nnc4N)C5)nc3)CC2)C(C)(C)C)cc1` (some centres unmarked) [I-503], for which the Dmax in experiment [2], in experiment [3] and in experiment [4] was more than 90% throughout. In addition, the DC50 in experiment [2] (MV4-11 cells), in experiment [3] (A549 cells) and in experiment [4] (MV4-11 cells) was less than 0.1 µM throughout.
For `Cc1ncsc1-c1ccc(CNC(=O)[C@@H]2C[C@@H](O)CN2C(=O)[C@@H](NC(=O)CN2C3CCC2CC(c2cnc(N4C5CCC4CN(c4cc(-c6ccccc6O)nnc4N)C5)nc2)C3)C(C)(C)C)cc1` (some centres unmarked) [I-509], the Dmax in experiment [2] is 70 to 90%; in experiment [3] it was more than 90%; in experiment [4], 70 to 90%. The DC50 in experiment [2] (MV4-11 cells) was less than 0.1 µM; in experiment [3] (A549 cells), 0.1 to 0.5 µM; in experiment [4] (MV4-11 cells) it was more than 1 µM.
On to `Cc1ncsc1-c1ccc(CNC(=O)[C@@H]2C[C@@H](O)CN2C(=O)[C@@H](NC(=O)c2ccc(N3CC(n4cc(-c5cc(-c6ccccc6O)nnc5N)cn4)C3)cc2)C(C)(C)C)cc1` [I-514], for which the Dmax in experiment [2], in experiment [3] and in experiment [4] was more than 90% throughout. The results for the DC50 in experiment [2] (MV4-11 cells), in experiment [3] (A549 cells) and in experiment [4] (MV4-11 cells) were less than 0.1 µM, 0.1 to 0.5 µM and less than 0.1 µM, respectively.
On to `Cc1ncsc1-c1ccc(CNC(=O)[C@@H]2C[C@@H](O)CN2C(=O)[C@@H](NC(=O)CN2CCC(c3cnc(N4C5CCC4CN(c4cc(-c6ccccc6O)nnc4N)C5)nc3)CC2)C(C)(C)C)c(C(F)(F)F)c1` [I-522], for which the values for the Dmax in experiment [2], in experiment [3] and in experiment [4] were more than 90%, 70 to 90% and 70 to 90%, respectively. The values for the DC50 in experiment [2] (MV4-11 cells), in experiment [3] (A549 cells) and in experiment [4] (MV4-11 cells) were less than 0.1 µM, 0.1 to 0.5 µM and more than 1 µM, respectively.
